Measurements taken from US4399132A, “7-Beta-[alpha-syn-methoxyimino-alpha-(2-aminothiazol-4-yl)-aceta mido]-3-[(1,2,3-thiadiazol-5-ylthio)methyl]-3-cephem-4-carboxylic acid and C1 -C6 alkyl derivatives thereof” (American Cyanamid Company, priority 1981, dated 1983).
Converted amounts (≈) assume the structure as drawn. Read-outs that look alike come from different tables or passages of the source.

System: Staphylococcus aureus
Experiment: Mueller-Hinton agar dilution method (MIC)
Assay type: cell-based
Conditions: read-out: Minimal Inhibitory Concentration
[1] = beta-lactamase negative, strain SSC 79-3, Table II
[2] = beta-lactamase negative, strain SSC 79-5, Table II
[3] = beta-lactamase negative, strain SSC 79-7, Table II
[4] = beta-lactamase negative, strain SSC 79-9, Table II
[5] = beta-lactamase negative, strain SSC 79-10, Table II
[6] = beta-lactamase negative, strain SSC 79-11, Table II
[7] = beta-lactamase negative, strain SSC 79-14, Table II
[8] = beta-lactamase negative, strain SSC 79-15, Table II
[9] = beta-lactamase negative, strain SSC 79-17, Table II
[10] = beta-lactamase positive, strain SSC 79-24, Table II
[11] = beta-lactamase positive, strain SSC 79-27, Table II
[12] = beta-lactamase positive, strain SSC 79-28, Table II
[13] = beta-lactamase positive, strain SSC 79-36, Table II
[14] = beta-lactamase positive, strain SSC 79-38, Table II
[15] = beta-lactamase positive, strain SSC 79-39, Table II
[16] = beta-lactamase positive, strain SSC 79-41, Table II
[17] = beta-lactamase positive, strain SSC 79-44, Table II
[18] = beta-lactamase positive, strain SSC 79-47, Table II

MIC [1] [µg/mL] | MIC [2] [µg/mL] | MIC [3] [µg/mL] | MIC [4] [µg/mL] | MIC [5] [µg/mL] | MIC [6] [µg/mL] | MIC [7] [µg/mL] | MIC [8] [µg/mL] | MIC [9] [µg/mL] | MIC [10] [µg/mL] | MIC [11] [µg/mL] | MIC [12] [µg/mL] | MIC [13] [µg/mL] | MIC [14] [µg/mL] | MIC [15] [µg/mL] | MIC [16] [µg/mL] | MIC [17] [µg/mL] | MIC [18] [µg/mL] | SMILES
2 (≈ 3.84 µM) | 8 (≈ 15.4 µM) | 2 (≈ 3.84 µM) | 2 (≈ 3.84 µM) | 2 (≈ 3.84 µM) | 2 (≈ 3.84 µM) | 4 (≈ 7.69 µM) | 8 (≈ 15.4 µM) | 4 (≈ 7.69 µM) | 32 (≈ 61.5 µM) | 4 (≈ 7.69 µM) | 4 (≈ 7.69 µM) | 4 (≈ 7.69 µM) | 2 (≈ 3.84 µM) | 4 (≈ 7.69 µM) | 4 (≈ 7.69 µM) | 2 (≈ 3.84 µM) | 4 (≈ 7.69 µM) | CO[C@@]1(NC(=O)C(C(=O)O)c2ccc(O)cc2)C(=O)N2C(C(=O)O)=C(CSc3nnnn3C)CO[C@@H]21 (stereo partly drawn) [Compound V, Moxalactam]
1 (≈ 2.61 µM) | 1 (≈ 2.61 µM) | 0.5 (≈ 1.3 µM) | 1 (≈ 2.61 µM) | 1 (≈ 2.61 µM) | 0.5 (≈ 1.3 µM) | 4 (≈ 10.4 µM) | 1 (≈ 2.61 µM) | 1 (≈ 2.61 µM) | > 128 | 0.5 (≈ 1.3 µM) | 0.5 (≈ 1.3 µM) | 1 (≈ 2.61 µM) | 0.5 (≈ 1.3 µM) | 4 (≈ 10.4 µM) | 1 (≈ 2.61 µM) | 0.5 (≈ 1.3 µM) | 1 (≈ 2.61 µM) | CO/N=C(\C(=O)N[C@@H]1C(=O)N2C(C(=O)O)=CCS[C@H]12)c1csc(N)n1 [Compound IV, Ceftizoxime]
0.5 (≈ 0.774 µM) | 2 (≈ 3.1 µM) | 0.5 (≈ 0.774 µM) | 0.5 (≈ 0.774 µM) | 0.5 (≈ 0.774 µM) | 0.25 (≈ 0.387 µM) | 2 (≈ 3.1 µM) | 2 (≈ 3.1 µM) | 1 (≈ 1.55 µM) | 128 (≈ 198 µM) | 1 (≈ 1.55 µM) | 2 (≈ 3.1 µM) | 2 (≈ 3.1 µM) | 1 (≈ 1.55 µM) | 2 (≈ 3.1 µM) | 2 (≈ 3.1 µM) | 1 (≈ 1.55 µM) | 2 (≈ 3.1 µM) | CCN1CCN(C(=O)N[C@@H](C(=O)N[C@@H]2C(=O)N3C(C(=O)O)=C(CSc4nnnn4C)CS[C@H]23)c2ccc(O)cc2)C(=O)C1=O [Compound VII, Cefaperazone]
1 (≈ 1.95 µM) | 4 (≈ 7.82 µM) | 1 (≈ 1.95 µM) | 2 (≈ 3.91 µM) | 1 (≈ 1.95 µM) | 1 (≈ 1.95 µM) | 4 (≈ 7.82 µM) | 4 (≈ 7.82 µM) | 2 (≈ 3.91 µM) | 32 (≈ 62.6 µM) | 2 (≈ 3.91 µM) | 2 (≈ 3.91 µM) | 2 (≈ 3.91 µM) | 2 (≈ 3.91 µM) | 4 (≈ 7.82 µM) | 4 (≈ 7.82 µM) | 2 (≈ 3.91 µM) | 2 (≈ 3.91 µM) | CO/N=C(\C(=O)N[C@@H]1C(=O)N2C(C(=O)O)=C(CSc3nnnn3C)CS[C@H]12)c1csc(N)n1 [Compound III, Cefmenoxime]
